Measured values: patent US6136347A, “Flavor-masked pharmaceutical compositions” (Bayer Aktiengesellschaft, priority 1992, dated 2000)
Structures can show the parent of a compound that is named as a salt.

Test: in vitro release (dissolution) of active ingredient from microcapsules in strongly acidic (pH 1) and weakly acidic (pH 4.5) medium
Assay type: physicochemical
Conditions: for release of active ingredient from microcapsules (in words): strongly acidic and weakly acidic medium (pH 1 and 4.5)
Excerpt: FIG. 1 is a graph depicting percent release as a function of time of an active ingredient from microcapsules prepared by spray solidification in carnauba wax.
FIGS. 2a and 2b are two graphs depicting percent release as a function of time of an active ingredient in, respectively, the hydrate and anhydrate forms.
FIGS. 3a and 3b are two graphs depicting percent release as a function of time of an active ingredient in, respectively, the hydrate and anhydrate forms.
FIGS. 4a and 4b are two graphs depicting percent release as a function of time of an active ingredient in, respectively, the hydrate and anhydrate forms.
FIGS. 5a and 5b are two graphs depicting percent release as a function of time of an active ingredient in, respectively, the hydrate and anhydrate forms.

| SMILES | release of active ingredient from microcapsules (in words) | release of active ingredient from wax-embedded microcapsules (in words) (embedded by method of EP-A-273,890 (carnauba wax, beeswax, ethylcellulose), FIG. 1, spray solidification in carnauba wax) | release of active ingredient from microcapsules (in words) (listed as ciprofloxacin betaine) |
| --- | --- | --- | --- |
| O=C(O)c1cn(C2CC2)c2cc(N3CCNCC3)c(F)cc2c1=O [ciprofloxacin HCl] | delayed | – | – |
| O=C(O)c1cn(C2CC2)c2cc(N3CCNCC3)c(F)cc2c1=O [ciprofloxacin] | – | does not lead, however, to the required rapid release of active ingredient | a rapid release of active ingredient is guaranteed |
